The text below walks through data of paper PMC10549826 (Antiviral research, 2023).

The target of this test is A/Victoria/361/2011 NA, wild-type sequence Q136, T148, R150, T439 (recombinant PR8-based A(H3N2) virus) (Influenza A virus, UniProt G9LQ08). In kind it is biochemical.

As for `CCC(CC)[C@H](NC(C)=O)[C@@H]1[C@H](O)[C@@H](C(=O)O)C[C@H]1N=C(N)N` [Peramivir, peramivir], the IC50 (as a rule, the point on the concentration scale where inhibition reaches its midpoint) was 0.07 ± 0.01 nM.
